Measured values reported in PubChem BioAssay (NCI).
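Cultured in 96-well plates, cells were exposed to test compound for 48 hours across five concentrations. At the GI50, growth is halved. The concentration for full growth arrest is given as TGI.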

What was measured:
Assay in all cases: inhibition of tumour cell growth, NCI panel, 48 h
[1] = system: HCT-116 colon
[2] = system: MDA-MB-231 breast
[3] = system: NCI-H23 lung
[4] = system: SK-MEL-28 melanoma
[5] = system: UACC-257 melanoma
[6] = system: A498 renal
[7] = system: M14 melanoma
[8] = system: MALME-3M melanoma

SMILES	GI50 [1] [µM]	TGI [1] [µM]	GI50 [2] [µM]	TGI [2] [µM]	GI50 [3] [µM]	TGI [3] [µM]	GI50 [4] [µM]	TGI [4] [µM]	GI50 [5] [µM]	TGI [5] [µM]	GI50 [6] [µM]	TGI [6] [µM]	GI50 [7] [µM]	TGI [7] [µM]	GI50 [8] [µM]	TGI [8] [µM]
Cc1nn(-c2ccccc2)c(C)c1/C=N/N1CCN(Cc2ccccc2)CC1	28	> 100	22.6	95.2	41.7	> 100	80.5	> 100	63	> 100						
COc1cc(C2C(C(=O)OCc3ccccc3)=C(C)NC(C)=C2C(=O)OCc2ccccc2)cc(OC)c1OC	2.54	> 100	2.16	> 100					3.82	> 100	1.75	> 100				
COC(=O)c1cc(NC(=O)CN(CCN(CC(=O)O)CC(=O)Nc2ccc(O)c(C(=O)OC)c2)CC(=O)O)ccc1O	43.9	> 100	> 100	> 100	78.9	> 100	> 100	> 100			71.7	> 100	41.9	> 100	> 100	> 100
Cc1csc(-c2ccc3c(c2)COC3(CCCN(C)C)c2ccc(F)cc2)c1 (stereo not drawn)	1.86	3.54	1.79	3.34	1.83	3.44	1.77	3.3	1.81	3.76			1.81	3.59	1.74	3.34
Cc1cn2c(/C=N/N=C(N)N)c(-c3cc(Cl)sc3Cl)nc2s1					0.904	1.66							0.874	1.56		
O=C1C(Cl)=C(Nc2cccc(O)c2)C(=O)N1c1ccc(Cl)cc1Cl	24.3	97.6	23.3	77.5	24.9	88.7	60.9	> 100					47.6	> 100	31.6	92
CCc1cccc(CC)c1NC(=O)c1ccn2c1CCc1cnc(Nc3ccc(N4CCN(C)CC4)cc3OC)nc1-2			2.11	8.29	4.48	27	1.76	3.55	2.05	4.8	10.9	23.5	1.59	3.62	1.87	3.8
CCCN(CCC)c1ccc(/C=N/NC(=O)c2cccnc2)cc1	23.5	> 100			36.1	> 100	33.6	> 100	31	> 100	10.2	22.3			41.8	> 100
